Legend:
Staphylococcus aureus [1] = test: Antibacterial activity against hospital-acquired methicillin-resistant Staphylococcus aureus ATCC 33592 incubated for 72 hrs; assay type: functional; conditions: ATCC 33592, 72 h
[2] = Ratio of MIC for community acquired methicillin-resistant Staphylococcus aureus USA300-0114 to HC20 for sheep RBC assessed as compound concentration required for <20% hemolysis
Pseudomonas aeruginosa = test: Antibacterial activity against Pseudomonas aeruginosa PAO1 incubated for 72 hrs; assay type: functional; conditions: PAO1, 72 h
[3] = Stability of the compound in pure water by LCMS method; assay type: physicochemical
Staphylococcus aureus [4] = test: Antibacterial activity against community acquired methicillin-resistant Staphylococcus aureus USA300-0114 incubated for 72 hrs; assay type: functional; conditions: USA300-0114, 72 h
[5] = Ratio of MIC for Enterococcus faecalis OG1RF to HC20 for sheep RBC assessed as compound concentration required for <20% hemolysis
Staphylococcus aureus [6] = test: Antibacterial activity against methicillin-susceptible Staphylococcus aureus SH1000 incubated for 72 hrs; assay type: functional; conditions: SH1000, 72 h
Escherichia coli = test: Antibacterial activity against Escherichia coli MC4100 incubated for 72 hrs; assay type: functional; conditions: str. K-12 substr. MC4100, 72 h
Enterococcus faecalis = test: Antibacterial activity against Enterococcus faecalis OG1RF incubated for 72 hrs; assay type: functional
[7] = Stability of the compound in pure water up to 72 hrs by LCMS analysis; assay type: physicochemical; conditions: read-out: Stability
[8] = Stability in buffer solution at pH 10 after 16 hrs by LCMS analysis; assay type: physicochemical; conditions: read-out: Stability
[9] = Solubility of the compound in buffer solution at pH 10 by LCMS analysis; assay type: physicochemical
[10] = Stability in buffer solution at pH 7 after 16 hrs by LCMS analysis; assay type: physicochemical; conditions: read-out: Stability
[11] = Stability in buffer solution assessed as decomposition at pH 10 by LCMS analysis; assay type: physicochemical
[12] = Stability in buffer solution assessed as decomposition at pH 4 by LCMS analysis; assay type: physicochemical
[13] = Half life at pH 7 buffer solution by LCMS method

Structure (SMILES): CCCCCCCCCCCCCCOC(=O)C[N+](C)(C)CCCN(CCC[N+](C)(C)CC(=O)OCCCCCCCCCCCCCC)CCC[N+](C)(C)CC(=O)OCCCCCCCCCCCCCC.[Br-].[Br-].[Br-]
- MIC (Staphylococcus aureus [1]): 32 µM
- Ratio [2]: 4
- MIC (Pseudomonas aeruginosa): 250 µM
- Stability [3]: Stable
- MIC (Staphylococcus aureus [4]): 16 µM
- Ratio [5]: 4
- MIC (Staphylococcus aureus [6]): 125 µM
- MIC (Escherichia coli): 32 µM
- MIC (Enterococcus faecalis): 16 µM

Structure (SMILES): CCCCCCCCCCNC(=O)C[N+](C)(C)CCCN(CCC[N+](C)(C)CC(=O)NCCCCCCCCCC)CCC[N+](C)(C)CC(=O)NCCCCCCCCCC.[Br-].[Br-].[Br-]
- MIC (Staphylococcus aureus [1]): 1 µM
- MIC (Pseudomonas aeruginosa): 8 µM
- remaining at 72 h [7]: ≥ 90%
- MIC (Staphylococcus aureus [4]): 0.5 µM
- remaining at 16 h [8]: > 80%
- solubility [9]: Insoluble
- remaining at 16 h [10]: > 80%
- MIC (Staphylococcus aureus [6]): 1 µM
- MIC (Escherichia coli): 1 µM
- MIC (Enterococcus faecalis): 1 µM
- Stability [11]: Unstable

Structure (SMILES): CCCCCCCCCCOC(=O)C[N+](C)(C)CCN1CC[N+](C)(CC(=O)OCCCCCCCCCC)CC1.[Br-].[Br-]
- MIC (Staphylococcus aureus [1]): 2 µM
- MIC (Pseudomonas aeruginosa): 16 µM
- remaining at 72 h [7]: ≥ 90%
- Stability [12]: Unstable
- T1/2 [13]: 3 h
- MIC (Staphylococcus aureus [4]): 2 µM
- MIC (Staphylococcus aureus [6]): 2 µM
- MIC (Escherichia coli): 2 µM
- MIC (Enterococcus faecalis): 4 µM
- Stability [11]: Unstable

Structure (SMILES): CCCCCCCCCCNC(=O)C[N+](C)(C)CCN1CC[N+](C)(CC(=O)NCCCCCCCCCC)CC1.[Br-].[Br-]
- MIC (Staphylococcus aureus [1]): 0.5 µM
- MIC (Pseudomonas aeruginosa): 2 µM
- remaining at 72 h [7]: ≥ 90%
- MIC (Staphylococcus aureus [4]): 0.5 µM
- remaining at 16 h [8]: > 80%
- solubility [9]: Insoluble
- remaining at 16 h [10]: > 80%
- MIC (Staphylococcus aureus [6]): 0.5 µM
- MIC (Escherichia coli): 1 µM
- MIC (Enterococcus faecalis): 0.5 µM
- Stability [11]: Unstable

Structure (SMILES): CCCCCCCCCCOC(=O)C[N+](C)(C)CCCN(CCC[N+](C)(C)CC(=O)OCCCCCCCCCC)CCC[N+](C)(C)CC(=O)OCCCCCCCCCC.[Br-].[Br-].[Br-]
- MIC (Staphylococcus aureus [1]): 4 µM
- MIC (Pseudomonas aeruginosa): 16 µM
- remaining at 72 h [7]: ≥ 90%
- Stability [12]: Unstable
- T1/2 [13]: 3 h
- MIC (Staphylococcus aureus [4]): 4 µM
- MIC (Staphylococcus aureus [6]): 2 µM
- MIC (Escherichia coli): 8 µM
- MIC (Enterococcus faecalis): 8 µM
- Stability [11]: Unstable

Structure (SMILES): CCCCCCCCCCCCCCOC(=O)C[N+](C)(C)CCC[N+](C)(CCC[N+](C)(C)CC(=O)OCCCCCCCCCCCCCC)CC(=O)OCCCCCCCCCCCCCC.[Br-].[Br-].[Br-]
- MIC (Staphylococcus aureus [1]): 32 µM
- Ratio [2]: 4
- MIC (Pseudomonas aeruginosa): 250 µM
- Stability [3]: Stable
- MIC (Staphylococcus aureus [4]): 16 µM
- MIC (Staphylococcus aureus [6]): 63 µM
- MIC (Escherichia coli): 63 µM
- MIC (Enterococcus faecalis): 32 µM

From ChEMBL document CHEMBL4038298, “Ester- and amide-containing multiQACs: Exploring multicationic soft antimicrobial agents” (Bioorg Med Chem Lett, 2017)
